{"source": "patent US20140057881A1", "about": "“Composition for the Treatment of Skin Conditions” (priority 2010, published 2014)", "assay_type_in_all_cases": "in vivo, human", "settings_in_all_cases": "patient history before treatment with Example 1", "key": {"[1]": {"test": "Case 8: topical treatment of a child"}, "[2]": {"test": "Case 7: topical treatment of a person", "excerpt": "A person with several year history of an itchy rash on the dorsum of their right foot presented (see FIG. 7A). They had previously tried many creams including various antifungal treatments, antibiotics and steroids, Particularly, they had tried Kenacomb™ (Triamcinolone acetonide, nystatin, gramicidin, neomycin); Mometasone Furoate 0.1% (Elocon™); Terbinafine Hydrochloride 1.0% (Lamisil™); Clotrimazole (sold under the trade name Canestan™) and Mupirocin (2% w/w) (sold under the trade name Bactroban™). […] There were areas of broken skin with scattered scab formation.\nA diagnosis of chronic dermatitis with lichenification was made and treatment commenced with the composition of Example 1.\nIn less than one week the rash had disappeared (FIG. 7B)."}, "[3]": {"test": "Case 1: topical treatment of a person", "from_the_text": "A diagnosis of periorbital dermatitis with lichenification was made and treatment using the formulation of Example 1 commenced."}}, "note": "Structures can show the parent of a compound that is named as a salt.", "data": [{"smiles": "CCC(=O)OCC(=O)[C@@]1(OC(=O)CC)[C@@H](C)C[C@H]2[C@@H]3CCC4=CC(=O)C=C[C@]4(C)[C@@]3(F)[C@@H](O)C[C@@]21C", "note": "[Betamethasone dipropionate 0.05%, Betamethasone dipropionate]", "values": [{"measurement": "outcome of previously tried products", "setting": "[1]", "result": "no permanent improvement"}]}, {"smiles": "Clc1ccccc1C(c1ccccc1)(c1ccccc1)n1ccnc1", "note": "[Clotrimazole]", "values": [{"measurement": "outcome of previously tried treatments", "setting": "[2]", "result": "None of the treatments gave them any long term results"}, {"measurement": "outcome of previously tried products", "setting": "[1]", "result": "no permanent improvement"}]}, {"smiles": "CC(=O)OCC(=O)[C@@]1(O)CC[C@H]2[C@@H]3CCC4=CC(=O)CC[C@]4(C)[C@H]3[C@@H](O)C[C@@]21C", "note": "[Hydrocosrtisone acetate 1%, Hydrocosrtisone acetate]", "values": [{"measurement": "outcome of previously used treatments", "setting": "[3]", "result": "no long term improvement"}, {"measurement": "outcome of previously tried products", "setting": "[1]", "result": "no permanent improvement"}]}, {"smiles": "CCC(=O)O[C@]1(C(=O)COC(C)=O)CC[C@H]2[C@@H]3C[C@H](C)C4=CC(=O)C=C[C@]4(C)[C@H]3[C@@H](O)C[C@@]21C", "note": "[Methylprednisolone aceponate]", "values": [{"measurement": "outcome of previously tried products", "setting": "[1]", "result": "no permanent improvement"}]}, {"smiles": "C[C@@H]1C[C@H]2[C@@H]3CCC4=CC(=O)C=C[C@]4(C)[C@@]3(Cl)[C@@H](O)C[C@]2(C)[C@@]1(OC(=O)c1ccco1)C(=O)CCl", "note": "[Mometasone Furoate 0.1%, Mometasone Furoate]", "values": [{"measurement": "outcome of previously used treatments", "setting": "[3]", "result": "no long term improvement"}, {"measurement": "outcome of previously tried treatments", "setting": "[2]", "result": "None of the treatments gave them any long term results"}]}, {"smiles": "C/C(=C\\C(=O)OCCCCCCCCC(=O)O)C[C@@H]1OC[C@H](C[C@@H]2O[C@H]2[C@@H](C)[C@H](C)O)[C@@H](O)[C@H]1O", "note": "[Mupirocin (2% w/w), Mupirocin]", "values": [{"measurement": "outcome of previously tried treatments", "setting": "[2]", "result": "None of the treatments gave them any long term results"}]}, {"smiles": "CN(C/C=C/C#CC(C)(C)C)Cc1cccc2ccccc12", "note": "[Terbinafine Hydrochloride 1.0%, Terbinafine Hydrochloride]", "values": [{"measurement": "outcome of previously used treatments", "setting": "[3]", "result": "no long term improvement"}, {"measurement": "outcome of previously tried treatments", "setting": "[2]", "result": "None of the treatments gave them any long term results"}, {"measurement": "outcome of previously tried products", "setting": "[1]", "result": "no permanent improvement"}]}]}
